For assay [1], the target named is GDP-bound KRAS wild-type protein (Homo sapiens, UniProt P01116). Briefly: Binding to KRAS by surface plasmon resonance (SPR), Single Cycle Kinetics. Conditions: SPR, Single Cycle Kinetics, 1:1 binding model; GDP-bound KRAS wild-type protein; read-out: KRAS KD.
Assay [2] concerns the target GDP-bound NRAS wild-type protein (Homo sapiens, UniProt P01111). The experiment in a line: Binding to NRAS by surface plasmon resonance (SPR), Single Cycle Kinetics. Conditions: SPR; GDP-bound NRAS wild-type protein vs GDP-bound KRAS wild-type protein; KD ratio class.
The target in assay [3] is GDP-bound HRAS wild-type protein (Homo sapiens, UniProt P01112). The experiment in a line: Binding to HRAS by surface plasmon resonance (SPR), Single Cycle Kinetics. Conditions: SPR; GDP-bound HRAS wild-type protein vs GDP-bound KRAS wild-type protein; KD ratio class.
GDP-bound HRAS wild-type protein, sequence (P01112 whole entry): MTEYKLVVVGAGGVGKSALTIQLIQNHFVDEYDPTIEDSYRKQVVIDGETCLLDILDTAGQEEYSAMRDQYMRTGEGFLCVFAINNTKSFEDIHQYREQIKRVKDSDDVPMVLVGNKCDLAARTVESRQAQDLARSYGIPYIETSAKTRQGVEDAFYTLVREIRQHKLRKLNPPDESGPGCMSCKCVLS

GDP-bound NRAS wild-type protein, sequence (P01111 whole entry): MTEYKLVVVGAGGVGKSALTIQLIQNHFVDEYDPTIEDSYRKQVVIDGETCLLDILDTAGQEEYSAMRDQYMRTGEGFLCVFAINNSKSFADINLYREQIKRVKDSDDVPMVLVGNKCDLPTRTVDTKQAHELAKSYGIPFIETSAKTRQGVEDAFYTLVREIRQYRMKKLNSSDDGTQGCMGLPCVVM
GDP-bound KRAS wild-type protein, sequence (P01116 whole entry): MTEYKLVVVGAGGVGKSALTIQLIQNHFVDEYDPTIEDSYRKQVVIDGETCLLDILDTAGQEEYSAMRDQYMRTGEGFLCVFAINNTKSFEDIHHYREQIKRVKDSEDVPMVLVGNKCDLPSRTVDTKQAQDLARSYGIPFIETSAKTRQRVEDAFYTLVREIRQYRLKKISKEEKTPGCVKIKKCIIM

`CCC[C@H]1C(=O)N[C@@H]([C@@H](C)CC)C(=O)N(C)CC(=O)N(C)[C@H]2C/C=C\CCN(C2=O)[C@@H](Cc2ccc(C(F)(F)F)cc2)C(=O)N(C)CC(=O)N[C@@H](CCc2cc(F)c(C(F)(F)F)c(F)c2)C(=O)N2C[C@H](OCC)C[C@H]2C(=O)NC2(CCC2)C(=O)N(C)[C@@H](C2CCCC2)C(=O)N(C)[C@H](C(=O)N(CC)CC)CC(=O)N1C` [PP1310, (2S,8S,12R,14S,20S,23S,27S,30S,36S,38Z)-20-cyclopentyl-8-[2-[3,5-difluoro-4-(trifluoromethyl)phenyl]ethyl]-12-ethoxy-N,N-diethyl-4,19,22,26,32,35-hexamethyl-30-[(1S)-1-methylpropyl]-3,6,9,15,18,21,25,28,31,34,42-undecaoxo-27-propyl-2-[[4-(trifluoromethyl)phenyl]methyl]spiro[1,4,7,10,16,19,22,26,29,32,35-undecazatricyclo[34.5.1.0^10,14]dotetracont-38-ene-17,1′-cyclobutane]-23-carboxamide]: the Kd in assay [1] stood at 0.13 nM. Moreover, the “NRAS/KRAS (ratio of KD value for NRAS to KD value for KRAS)” value in assay [2] was “AA (a compound having 20 or more is denoted as AA)”. Also, the “HRAS/KRAS (ratio of KD value for HRAS to KD value for KRAS)” value in assay [3] is “A (a compound having 10 or more and less than 20 is denoted as A)”.
For `CCO[C@@H]1C[C@H]2C(=O)NC3(CCC3)C(=O)N(C)[C@@H](C3CCCC3)C(=O)N(C)[C@H](C(=O)N(C)CCOC)CC(=O)N(C)[C@@H](CC)C(=O)N[C@@H]([C@@H](C)CC)C(=O)N(C)CC(=O)N(C)[C@H]3C/C=C\CCN(C3=O)[C@@H](Cc3ccc(C(F)(F)F)cc3)C(=O)N(C)CC(=O)N[C@@H](CCc3cc(F)c(C(F)(F)F)c(F)c3)C(=O)N2C1` [PP1316, (2S,8S,12R,14S,20S,23S,27S,30S,36S,38Z)-20-cyclopentyl-8-[2-[3,5-difluoro-4-(trifluoromethyl)phenyl]ethyl]-12-ethoxy-27-ethyl-N-(2-methoxyethyl)-N,4,19,22,26,32,35-heptamethyl-30-[(1S)-1-methylpropyl]-3,6,9,15,18,21,25,28,31,34,42-undecaoxo-2-[[4-(trifluoromethyl)phenyl]methyl]spiro[1,4,7,10,16,19,22,26,29,32,35-undecazatricyclo[34.5.1.0^10,14]dotetracont-38-ene-17,1′-cyclobutane]-23-carboxamide], the Kd in assay [1] amounted to 0.072 nM. The “NRAS/KRAS (ratio of KD value for NRAS to KD value for KRAS)” value in assay [2] is “A (a compound having 10 or more and less than 20 is denoted as A)”. Besides, in assay [3], the “HRAS/KRAS (ratio of KD value for HRAS to KD value for KRAS)” value was “A (a compound having 10 or more and less than 20 is denoted as A)”.
Regarding `CCO[C@@H]1C[C@H]2C(=O)NC3(CCC3)C(=O)N(C)[C@@H](C3CCCC3)C(=O)N(C)[C@H](C(=O)N(C)CCOC)CC(=O)N(C)[C@@H](CC(C)C)C(=O)N[C@@H]([C@@H](C)CC)C(=O)N(C)CC(=O)N(C)[C@H]3C/C=C\CCN(C3=O)[C@@H](Cc3ccc(C(F)(F)F)cc3)C(=O)N(C)CC(=O)N[C@@H](CCc3cc(F)c(C(F)(F)F)c(F)c3)C(=O)N2C1` [PP1317], in assay [1], the Kd worked out at 0.094 nM. For the same compound, the “NRAS/KRAS (ratio of KD value for NRAS to KD value for KRAS)” value in assay [2] was “A (a compound having 10 or more and less than 20 is denoted as A)”. Also, the “HRAS/KRAS (ratio of KD value for HRAS to KD value for KRAS)” value in assay [3] was “B (a compound having 3 or more and less than 10 is denoted as B)”.
On to `CCO[C@@H]1C[C@H]2C(=O)NC3(CCC3)C(=O)N(C)[C@@H](C3CCCC3)C(=O)N(C)[C@H](C(=O)N(C)CCOC)CC(=O)N(C)[C@@H](CC3CC3)C(=O)N[C@@H]([C@@H](C)CC)C(=O)N(C)CC(=O)N(C)[C@H]3C/C=C\CCN(C3=O)[C@@H](Cc3ccc(C(F)(F)F)cc3)C(=O)N(C)CC(=O)N[C@@H](CCc3cc(F)c(C(F)(F)F)c(F)c3)C(=O)N2C1` [PP1318], for which, in assay [1], the Kd amounted to 0.091 nM. Besides, the “NRAS/KRAS (ratio of KD value for NRAS to KD value for KRAS)” value in assay [2] is “A (a compound having 10 or more and less than 20 is denoted as A)”. Moreover, in assay [3], the “HRAS/KRAS (ratio of KD value for HRAS to KD value for KRAS)” value was “A (a compound having 10 or more and less than 20 is denoted as A)”.
For `CCO[C@@H]1C[C@H]2C(=O)NC3(CCC3)C(=O)N(C)[C@@H](C3CCCC3)C(=O)N(C)[C@H](C(=O)N(C)CCOC)CC(=O)N(C)[C@@H](C)C(=O)N[C@@H]([C@@H](C)CC)C(=O)N(C)CC(=O)N(C)[C@H]3C/C=C\CCN(C3=O)[C@@H](Cc3ccc(C(F)(F)F)cc3)C(=O)N(C)CC(=O)N[C@@H](CCc3cc(F)c(C(F)(F)F)c(F)c3)C(=O)N2C1` [PP1319, (2S,8S,12R,14S,20S,23S,27S,30S,36S,38Z)-20-cyclopentyl-8-[2-[3,5-difluoro-4-(trifluoromethyl)phenyl]ethyl]-12-ethoxy-N-(2-methoxyethyl)-N,4,19,22,26,27,32,35-octamethyl-30-[(1S)-1-methylpropyl]-3,6,9,15,18,21,25,28,31,34,42-undecaoxo-2-[[4-(trifluoromethyl)phenyl]methyl]spiro[1,4,7,10,16,19,22,26,29,32,35-undecazatricyclo[34.5.1.0^10,14]dotetracont-38-ene-17,1′-cyclobutane]-23-carboxamide], the Kd in assay [1] was determined as 0.069 nM. Further, the “NRAS/KRAS (ratio of KD value for NRAS to KD value for KRAS)” value in assay [2] is “A (a compound having 10 or more and less than 20 is denoted as A)”. The “HRAS/KRAS (ratio of KD value for HRAS to KD value for KRAS)” value in assay [3] was “B (a compound having 3 or more and less than 10 is denoted as B)”.
Turning to `CCO[C@@H]1C[C@H]2C(=O)NC3(CCC3)C(=O)N(C)[C@@H](C3CCCC3)C(=O)N(C)[C@H](C(=O)N(C)CCOC)CC(=O)N(C)[C@@H](CC(F)F)C(=O)N[C@@H]([C@@H](C)CC)C(=O)N(C)CC(=O)N(C)[C@H]3C/C=C\CCN(C3=O)[C@@H](Cc3ccc(C(F)(F)F)cc3)C(=O)N(C)CC(=O)N[C@@H](CCc3cc(F)c(C(F)(F)F)c(F)c3)C(=O)N2C1` [PP1320], the Kd in assay [1] was 0.057 nM. In assay [2], the “NRAS/KRAS (ratio of KD value for NRAS to KD value for KRAS)” value was “A (a compound having 10 or more and less than 20 is denoted as A)”. Besides, the “HRAS/KRAS (ratio of KD value for HRAS to KD value for KRAS)” value in assay [3] is “A (a compound having 10 or more and less than 20 is denoted as A)”.
Regarding `CCO[C@@H]1C[C@H]2C(=O)NC3(CCC3)C(=O)N(C)[C@@H](C3CCCC3)C(=O)N(C)[C@H](C(=O)N(C)CCOC)CC(=O)N(C)[C@@H](CC)C(=O)N[C@@H]([C@@H](C)CC)C(=O)N(C)CC(=O)N(C)[C@H]3C/C=C\CCN(C3=O)[C@@H](Cc3ccc(C(F)(F)F)cc3)C(=O)N(C)CC(=O)N[C@@H](CCc3ccc(C(F)(F)F)c(OC)c3)C(=O)N2C1` [PP1321, (2S,8S,12R,14S,20S,23S,27S,30S,36S,38Z)-20-cyclopentyl-12-ethoxy-27-ethyl-N-(2-methoxyethyl)-8-[2-[3-methoxy-4-(trifluoromethyl)phenyl]ethyl]-N,4,19,22,26,32,35-heptamethyl-30-[(1S)-1-methylpropyl]-3,6,9,15,18,21,25,28,31,34,42-undecaoxo-2-[[4-(trifluoromethyl)phenyl]methyl]spiro[1,4,7,10,16,19,22,26,29,32,35-undecazatricyclo[34.5.1.0^10,14]dotetracont-38-ene-17,1′-cyclobutane]-23-carboxamide], the Kd in assay [1] amounted to 0.08 nM. Besides, the “NRAS/KRAS (ratio of KD value for NRAS to KD value for KRAS)” value in assay [2] was “A (a compound having 10 or more and less than 20 is denoted as A)”. The “HRAS/KRAS (ratio of KD value for HRAS to KD value for KRAS)” value in assay [3] was “B (a compound having 3 or more and less than 10 is denoted as B)”.

The values are drawn from US20240158446A1, “CYCLIC COMPOUND HAVING SELECTIVE INHIBITORY ACTION ON KRAS OVER HRAS AND NRAS” (CHUGAI SEIYAKU KABUSHIKI KAISHA, priority 2021, published 2024).
